Measurements from paper PMC5524571 (Molecular cell, 2012).

What was measured:
MdfA [1] = biological target: T1, MdfA (Escherichia coli, UniProt P0AEY8); assay: substrate-induced proton release from purified MdfA; assay type: binding; conditions: unbuffered solution, 2 µM MdfA, 500 µM EtBr
MdfA [2] = biological target: T1, MdfA; conditions: several pH values (pH 6 to 8.5)
Asp34 = Asp34 (UniProt position 34, TYIGNDMIQPG); assay: fluorescence; conditions: Detergent-solubilised, folded; competition between TPP and protons

T1 sequence (P0AEY8 whole entry): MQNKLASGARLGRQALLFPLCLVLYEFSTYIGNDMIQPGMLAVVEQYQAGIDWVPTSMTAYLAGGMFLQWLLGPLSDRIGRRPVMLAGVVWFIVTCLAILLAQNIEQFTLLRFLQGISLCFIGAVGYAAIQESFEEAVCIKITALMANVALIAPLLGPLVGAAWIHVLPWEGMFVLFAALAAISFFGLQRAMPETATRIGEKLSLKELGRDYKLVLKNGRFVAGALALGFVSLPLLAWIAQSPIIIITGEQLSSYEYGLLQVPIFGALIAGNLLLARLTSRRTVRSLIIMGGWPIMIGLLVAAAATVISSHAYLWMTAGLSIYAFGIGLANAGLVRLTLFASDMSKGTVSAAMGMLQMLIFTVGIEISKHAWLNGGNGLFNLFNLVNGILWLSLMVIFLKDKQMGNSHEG

## CC[n+]1c(-c2ccccc2)c2cc(N)ccc2c2ccc(N)cc21 [ethidium bromide]
MdfA [1]
  substrate-induced proton release from purified MdfA (pH electrode): adding TPP or EtBr caused rapid acidification

## c1ccc([P+](c2ccccc2)(c2ccccc2)c2ccccc2)cc1 [TPP]
MdfA [2]
  dissociation constant: the affinity of purified, detergent-solubilized MdfA for its substrate tetraphenylphosphonium (TPP) was measured

## Multidrug transporter MdfA (wild type, His6-tagged) (Escherichia coli)
Asp34
  pKa: 6.84 ± 0.06
